This note sets out measurements from patent publication US7544814B2, “[3.2.0] Heterocyclic compounds and methods of using the same” (Nereus Pharmaceuticals, Inc., priority 2004, dated 2009).

In data set [1] the target is T1, chymotrypsin-like activity of 20S proteasomes in RPMI 8226 cells (Homo sapiens, UniProt P28074).
T1 construct: added to 2.5×10^5/ml RMPI 8226 cells; endogenous in cells; host or cells: RPMI 8226 (ATCC CCL-155)
T1 sequence (P28074 60-263): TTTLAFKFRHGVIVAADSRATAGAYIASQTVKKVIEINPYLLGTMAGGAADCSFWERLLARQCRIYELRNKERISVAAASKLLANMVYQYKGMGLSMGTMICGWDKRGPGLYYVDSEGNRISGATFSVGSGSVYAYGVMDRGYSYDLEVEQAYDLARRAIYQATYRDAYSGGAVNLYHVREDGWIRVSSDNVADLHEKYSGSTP
The experiment in a line: Chymotrypsin-like activity of 20S proteasomes in lysates of treated RPMI 8226 cells. It counts as cell-based. As to conditions: RPMI-8226, read-out: % inhibition of the chymotrypsin-like activity of 20S proteasomes in RPMI 8226 cell lysates. The procedure: RPMI 8226 (ATCC, CCL-155), the human multiple myeloma cell line, was cultured in RPMI 1640 medium supplemented with 2 mM L-glutamine, 100 units/ml penicillin, 100 μg/ml streptomycin, 1 mM sodium pyruvate and 10% heat inactivated fetal bovine serum at 37° C., 5% CO2 and 95% humidified air. […] DMSO was used as the vehicle control at a final concentration of 0.1%. Following 1 hr incubation of RMPI 8226 cells with the compounds, the cells were pelleted by centrifugation at 2,000 rpm for 10 sec at room temperature and washed 3× with ice-cold 1× Dulbecco's Phosphate-Buffered Saline (DPBS, Mediatech, Herndon, Va.). DPBS washed cells were lysed on ice for 15 min in lysis buffer (20 mM HEPES, 0.5 mM EDTA, 0.05% Triton X-100, pH 7.3) supplemented with protease inhibitor cocktail (Roche Diagnostics, Indianapolis, Ind.). Cell debris was pelleted by centrifugation at 14,000 rpm for 10 min, 4° C. and supernatants (=cell lysates) were transferred to a new tube. Protein concentration was determined by the BCA protein assay kit (Pierce Biotechnology, Rockford, Ill.). […] The released coumarin (AMC) was measured fluorometrically by using λex=390 nm and λem=460 nm. The assay was performed in a microtiter plate (Corning 3904) and followed kinetically with measurements every five minutes for 2 hr. The total amount of protein used for each assay was 20 μg. The final concentration of Suc-LLVY-AMC and DMSO was 20 μM and 0.2%, respectively.

For data set [2], the target named is T2, chymotrypsin-like activity of 20S proteasomes in PC-3 cells (Homo sapiens, UniProt P28074).
T2 construct: endogenous in cells; host or cells: PC-3 (ATCC CRL-1435)
The experiment in a line: Chymotrypsin-like activity of 20S proteasomes in lysates of treated PC-3 cells. It counts as cell-based. As to conditions: 100 nM, 1 hr incubation. On the procedure:
PC-3 (ATCC, CRL-1435), the human prostate cancer cell line, was cultured in F12K medium supplemented with 2 mM L-glutamine, 100 units/ml penicillin, 100 μg/ml streptomycin and 10% heat inactivated fetal bovine serum at 37° C., 5% CO2 and 95% humidified air. […] DMSO was used as the vehicle control at a final concentration of 0.1%. Following 1 hr incubation of PC-3 cells with the compounds, the cells were washed 3× with ice-cold 1× Dulbecco's Phosphate-Buffered Saline (DPBS, Mediatech, Herndon, Va.). […] Cell debris was pelleted by centrifugation at 14,000 rpm for 10 min, 4° C. and supernatants (=cell lysates) were transferred to a new tube. Protein concentration was determined by the BCA protein assay kit (Pierce Biotechnology, Rockford, Ill.). […] The released coumarin (AMC) was measured fluorometrically by using λex=390 nm and λem=460 nm. The assay was performed in a microtiter plate (Corning 3904) and followed kinetically with measurements every five minutes for 2 hr. The total amount of protein used for each assay was 20 μg. The final concentration of Suc-LLVY-AMC and DMSO was 20 μM and 0.2%, respectively. Results are presented as the percent inhibition of the 20S proteasome chymotrypsin-like activity relative to the DMSO control.

In data set [3] the test system is RPMI 8226. The data set is described as follows: cells. As to conditions: 1% or 10% FBS. On the procedure: RPMI 8226 (CCL-155), HT-29 (HTB-38), and B16-F10 (CRL-6475) cells were purchased from ATCC. RPMI 8226 cells were maintained in RPMI 1640 media supplemented with 10% (v/v) FBS, 2 mM L-glutamine, 1 mM sodium pyruvate and Penicillin/Streptomycin at 100 IU/ml and 100 μg/ml, respectively. HT-29 cells were maintained in McCoys 5A supplemented with 10% (v/v) FBS, 2 mM L-glutamine, 1 mM sodium pyruvate, 1% (v/v) non-essential amino acids, 10 mM HEPES and Penicillin/Streptomycin at 100 IU/ml and 100 μg/ml, respectively. B16-F10 cells were maintained in DMEM supplemented with 10% (v/v) FBS, 2 mM L-glutamine, 10 mM HEPES and Penicillin/Streptomycin at 100 IU/ml and 100 μg/ml, respectively.
RPMI 8226 cells were seeded at 2×10^4 cells/well in 90 μl RPMI media containing 10% (v/v) FBS or 1% (v/v) FBS into 96 well black-walled, clear-bottom tissue culture plates. […] Formulae II-16, II-17 and Formula II-18 were serially diluted in media containing 1% or 10% FBS and added in triplicate to the test wells. […] The final concentration of Formula II-18 ranged from 2 μM to 630 pM.

For data set [4], the target named is T3, trypsin-like activity of purified rabbit muscle 20S proteasome (Oryctolagus cuniculus, UniProt G1SWK8).
T3 sequence (G1SWK8 1-271): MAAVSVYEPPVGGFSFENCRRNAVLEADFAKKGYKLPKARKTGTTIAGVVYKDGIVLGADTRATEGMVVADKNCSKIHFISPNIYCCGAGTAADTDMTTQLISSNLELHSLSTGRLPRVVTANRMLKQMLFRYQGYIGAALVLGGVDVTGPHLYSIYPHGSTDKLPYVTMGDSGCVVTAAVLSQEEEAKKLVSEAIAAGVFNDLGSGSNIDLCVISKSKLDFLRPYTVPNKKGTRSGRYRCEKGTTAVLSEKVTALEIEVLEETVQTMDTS
The experiment in a line: biochemical.

The subject of data set [5] is U266.
The subject of data set [6] is U266. The data set is described as follows: Cell growth inhibition (resazurin), U266. As to conditions: 48 hours drug exposure. On the technique in general: Resazurin is reduced to fluorescent resorufin, in cell work by metabolically active cells.
Data set [7] deals with RPMI 8226. The experiment in a line: Cell growth inhibition (resazurin), RPMI 8226. As to conditions: Homo sapiens, RPMI-8226, 48 h, read-out: RPMI 8226 EC50, Table 2; 48 hours drug exposure; mean ± SD where n≥3.
Data set [8] deals with T4, caspase-like activity of purified rabbit muscle 20S proteasome (Oryctolagus cuniculus, UniProt A0A5F9DQW2).
T4 sequence (A0A5F9DQW2 1-212): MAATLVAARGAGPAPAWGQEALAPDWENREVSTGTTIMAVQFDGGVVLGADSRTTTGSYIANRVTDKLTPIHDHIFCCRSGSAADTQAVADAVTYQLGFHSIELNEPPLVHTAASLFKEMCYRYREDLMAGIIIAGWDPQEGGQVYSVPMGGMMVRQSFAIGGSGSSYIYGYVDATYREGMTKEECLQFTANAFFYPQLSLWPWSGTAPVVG
The data set is described as follows: In vitro inhibition of 20S proteasome caspase-like activity (Z-LLE-AMC). The settings on record: EC50 Caspase-like, Table 6, values in μM.

Data set [9] has as its target T5, chymotrypsin-like activity of purified rabbit muscle 20S proteasome (Oryctolagus cuniculus, UniProt G1T4Q9).
T5 sequence (G1T4Q9 1-263): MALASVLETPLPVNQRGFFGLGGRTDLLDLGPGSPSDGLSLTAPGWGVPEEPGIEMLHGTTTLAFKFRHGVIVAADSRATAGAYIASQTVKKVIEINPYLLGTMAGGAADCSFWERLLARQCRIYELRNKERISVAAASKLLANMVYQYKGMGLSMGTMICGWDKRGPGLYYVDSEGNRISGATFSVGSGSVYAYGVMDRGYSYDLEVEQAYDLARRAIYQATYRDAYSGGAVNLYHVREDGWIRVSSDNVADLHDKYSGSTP
The data set is described as follows: In vitro inhibition of 20S proteasome chymotrypsin-like activity (suc-LLVY-AMC).

The next data set relates to MES-SA/Dx5. The experiment in a line: Cell growth inhibition (resazurin), multidrug resistant MES-SA/Dx5. Format: cell-based, human. The settings on record: for EC50: Table 3, 48 hours drug exposure.
The subject of another data set is HL-60/MX2. The experiment in a line: Cell growth inhibition (resazurin), multidrug resistant HL-60/MX2. The settings on record: ratio of EC50 values (HL-60/MX2:HL-60). The procedure: Concentrations ranging from 6.32 μM to 2 nM were tested for II-2 and II-4.
HL-60/MX2 is a multidrug resistant tumor cell line derived from the human promyelocytic leukemia cell line, HL-60 and expresses reduced topoisomerase II activity. […] Mitoxantrone, the topoisomerase II targeting agent was included as a control.

Where “and” joins values, the source holds several entries; their conditions need not be identical. Equal values may be shown once. Read-outs that look alike come from different tables or passages of the source. Where only a bound is given, the exact number is not on record here.

For the compound `CC[C@H]1C(=O)N[C@@]2([C@@H](O)[C@@H]3C=CCCC3)C(=O)O[C@@]12C` [Formula II-17], in data set [1], the inhibition (usually the percentage by which the read-out fell short of the control) at 0.001 µM was 6 ± 6%, the inhibition at 0.005 µM is 10 ± 5%, the inhibition at 0.01 µM stood at 6 ± 6% and the inhibition at 0.05 µM turned out to be 26 ± 5%. In addition, in [1], the inhibition at 0.1 µM was 30 ± 4%, the inhibition at 0.5 µM came out at 39 ± 3%, the inhibition at 1 µM stood at 46 ± 4% and the inhibition at 10 µM was 65 ± 5%. The “% inhibition of the chymotrypsin-like activity of 20S proteasomes in PC-3 cell lysates” value in data set [2] stood at 26%. The “cytotoxicity against RPMI 8226 in media containing 1% or 10% FBS, in words” value in the data set with RPMI 8226 [3] was “cytotoxic”. Besides, the concentration for a half-maximal effect (EC50) (as a rule, the concentration at which the effect is half-maximal) in data set [4] was 0.573 µM and 0.602 µM.
Turning to `C[C@@]12OC(=O)[C@]1([C@@H](O)[C@H]1CCC[C@H](Cl)[C@H]1O)NC(=O)[C@@H]2CCCl` [Formula IV-3C], in the data set with U266 [5], the “cytotoxicity against U266, in words” value is given as “cytotoxic”. Further, the EC50 in data set [4] is > 20 µM; with U266 [6] (Homo sapiens, U-266, 48 h, read-out: U266 EC50, Table 2) it was 7.76 µM; in the data set on U266 [6] (read-out: U266 EC50, Table 2) it was 8.29 µM; with RPMI 8226 [7] it was > 20 µM; in data set [8], > 20 µM; in data set [9] (EC50 Chymotrypsin-like, Table 6, values in μM) it was 4.9 µM and 10.6 µM. The same compound had a concentration giving a half-maximal response (EC50) in data set [9] (EC50 values, chymotrypsin-like activity, range or bound stated in text, summary of Table 6) of 1.4 to 10.6 µM.
Consider `CC(=O)O[C@H]1C(=O)[C@@]2(C)[C@H]([C@H](OC(=O)c3ccccc3)[C@]3(O)C[C@H](OC(=O)[C@H](O)[C@@H](NC(=O)c4ccccc4)c4ccccc4)C(C)=C1C3(C)C)[C@]1(OC(C)=O)CO[C@@H]1C[C@@H]2O` [Paclitaxel], for which the EC50 with MES-SA/Dx5 (Homo sapiens, MES-SA/Dx5, 48 h) amounted to 2.93 µM; in the data set on MES-SA/Dx5, 5.21 µM. Moreover, the Fold change in the data set with MES-SA/Dx5 (ratio of EC50 values (MES-SA/Dx5:MES-SA)) was ~800 fold.
For `CC(C)[C@H](O)[C@@]12NC(=O)[C@H](C)[C@@H]1OC2=O` [Omuralide, reference compound], the inhibition at 0.001 µM in data set [1] (1 nM, 1 hr incubation, mean ± SD, n = 3) worked out at 5 ± 9%. Moreover, the inhibition at 0.005 µM in [1] (5 nM, 1 hr incubation, mean ± SD, n = 3) came to 8 ± 9%. Besides, the inhibition at 0.05 µM in data set [1] (50 nM, 1 hr incubation, mean ± SD, n = 3) was found to be 17 ± 11%. Also, the inhibition at 0.1 µM in data set [1] (100 nM, 1 hr incubation, mean ± SD, n = 3) stood at 32 ± 8%; in data set [2] (PC-3, read-out: % inhibition of the chymotrypsin-like activity of 20S proteasomes in PC-3 cell lysates), 36%. Besides, in [1] (500 nM, 1 hr incubation, mean ± SD, n = 3), the inhibition at 0.5 µM was 68 ± 11%. In addition, the “% inhibition of the chymotrypsin-like activity of 20S proteasomes in PC-3 cell lysates” value in data set [2] is 36%.
As for `O=C1c2c(O)ccc(O)c2C(=O)c2c(NCCNCCO)ccc(NCCNCCO)c21` [Mitoxantrone, reference compound], the Fold change with HL-60/MX2 is ~30 fold.
